Results taken from patent US20200031825A1, “HETEROAROMATIC-FUSED IMIDAZOLYL AMIDES, COMPOSITIONS AND USES THEREOF AS STING AGONISTS” (Trillium Therapeutics Inc., priority 2018, published 2020).
Like-named read-outs stand apart in the source and are kept apart here.

Legend:
Assay type in all cases: cell-based
[1] = test system: human dendritic cells (h-DCs); test: Cellular Functional Assay II: secreted IFN-β from human dendritic cells; conditions: h-DC
Procedure: (§1) Activation of STING in primary cells was determined by measuring levels of secreted IFN-β from human monocyte-derived macrophages (h-MDMs)/dendritic cells (h-DCs) and/or mouse dendritic cells (m-DCs) after treatment with A.
(§2) Human CD14+ cells were first isolated from human peripheral blood mononuclear cells (PBMCs) with Stemcell Easysep Monocyte Isolation™ kit. Human CD14+ cells were kept in conditioned media for 7-12 days to generate h-MDMs and h-DCs before use. After harvesting from C57BL/6 mouse femurs, bone marrow cells were culture in conditioned media for 7 days to generate m-DCs before use.
(§3) The Culture conditions for the various types of cells whereas noted in Table 2:
(§4) 0.5×10^6 cells in 50 ul buffer (50 mM HEPES, pH7.0; 100 mM KCl; 3 mM MgCl2, 0.1 mM DTT; 85 mM Sucrose; 0.2% BSA, 1 mM ATP) in 96-well round bottom plate. Compound (formulated in DMSO) or DMSO (control) were added into each well and the plate incubate at 37° C. for 30 minutes. Cells were washed twice with 100 uL of fresh media and incubated at 37° C. for an additional 6 hours. After 6 hour of incubation, the supernatant was collected and a Cytometry Bead Assay™ (CBA, BioLegend) was used to measure […] levels.

[2] = test system: human monocyte-derived macrophages (h-MDMs); test: Cellular Functional Assay II: secreted IFN-β from human monocyte-derived macrophages; conditions: h-MDM
Procedure: as §1, §2, §3, §4

[3] = test system: mouse dendritic cells (m-DCs); test: Cellular Functional Assay II: secreted IFN-β from mouse dendritic cells; conditions: m-DC
Procedure: as §1, §2, §3, §4

hSTING-H232 = hSTING-H232 (Homo sapiens, UniProt Q86WV6); test: Cellular Functional Assay I: ISRE-SEAP reporter in HEK-293T-Dual Null cells transfected with hSTING-H232; conditions: HEK-293T-Dual Null, hSTING-H232
mSTING-wt = molecular target: T1, mSTING-wt (Mus musculus, UniProt Q3TBT3); test: Cellular Functional Assay I: ISRE-SEAP reporter in HEK-293T-Dual Null cells transfected with mouse STING; conditions: SEAP reporter, HEK-293T-Dual Null, mSTING-wt; read-out: EC50 mSTING-wt
T1 sequence (Q3TBT3 1-378): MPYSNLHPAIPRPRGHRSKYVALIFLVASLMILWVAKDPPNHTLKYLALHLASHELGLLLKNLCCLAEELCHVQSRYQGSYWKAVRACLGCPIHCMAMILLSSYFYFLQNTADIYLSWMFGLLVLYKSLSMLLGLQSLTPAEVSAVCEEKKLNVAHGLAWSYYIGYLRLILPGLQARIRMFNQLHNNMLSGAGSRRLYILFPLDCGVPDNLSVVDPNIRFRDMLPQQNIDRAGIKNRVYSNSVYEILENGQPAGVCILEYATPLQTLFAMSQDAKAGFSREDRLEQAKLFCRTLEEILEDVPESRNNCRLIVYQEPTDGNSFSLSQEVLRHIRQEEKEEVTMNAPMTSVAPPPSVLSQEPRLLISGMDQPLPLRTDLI

hSTING-Q = molecular target: T2, hSTING-Q (Homo sapiens, UniProt Q86WV6, R293Q); test: Cellular Functional Assay I: ISRE-SEAP reporter, hSTING-Q allele
T2 construct: expressed in transfected cells

hSTING-HAQ = hSTING-HAQ (Homo sapiens, UniProt Q86WV6, G230A/H232R/R293Q/R71H); test: Cellular Functional Assay I: ISRE-SEAP reporter in HEK-293T-Dual Null cells transfected with hSTING-HAQ; conditions: HEK-293T-Dual Null, hSTING-HAQ
hSTING-wt = hSTING-wt (Homo sapiens, UniProt Q86WV6); test: Cellular Functional Assay I: ISRE-SEAP reporter in HEK-293T-Dual Null cells transfected with hSTING-wt; conditions: HEK-293T-Dual Null, hSTING-wt
hSTING-AQ = molecular target: T3, hSTING-AQ (Homo sapiens, UniProt Q86WV6, G230A/R293Q); test: Cellular Functional Assay I: ISRE-SEAP reporter, hSTING-AQ allele
T3 construct: expressed in transfected cells

human PBMCs = test: Cellular Functional Assay III: IFN-β production from human PBMCs; conditions: PBMC
Procedure: Frozen human PBMCs (BioIVT Inc.) were thawed first in a 37° C. water bath, then washed with RPMI/10% FBS/2 mM EDTA medium twice before establishing a viable cell count by Trypan Blue. The final cell density for each donor was 5×10^6 cells per well with RPMI/10% FBS medium in a 96 well u-bottom plate.
Human PBMCs were then incubated with testing compounds with indicated concentrations and control for 4 hours at 37° C. in cell culture incubator. After incubation, supernatant was collected and used for measuring induced cytokine level by cytometric bead array analysis.

[4] = Donor 1, 4 hours, read-out: Potency (IFN-β production) in Human PBMCs (EC50s) Donor 1
[5] = Donor 2, 4 hours, read-out: Potency (IFN-β production) in Human PBMCs (EC50s) Donor 2
[6] = Donor 3, 4 hours, read-out: Potency (IFN-β production) in Human PBMCs (EC50s) Donor 3
[7] = Donor 4, 4 hours, read-out: Potency (IFN-β production) in Human PBMCs (EC50s) Donor 4

Sequence of hSTING-wt (Q86WV6 whole entry H232R): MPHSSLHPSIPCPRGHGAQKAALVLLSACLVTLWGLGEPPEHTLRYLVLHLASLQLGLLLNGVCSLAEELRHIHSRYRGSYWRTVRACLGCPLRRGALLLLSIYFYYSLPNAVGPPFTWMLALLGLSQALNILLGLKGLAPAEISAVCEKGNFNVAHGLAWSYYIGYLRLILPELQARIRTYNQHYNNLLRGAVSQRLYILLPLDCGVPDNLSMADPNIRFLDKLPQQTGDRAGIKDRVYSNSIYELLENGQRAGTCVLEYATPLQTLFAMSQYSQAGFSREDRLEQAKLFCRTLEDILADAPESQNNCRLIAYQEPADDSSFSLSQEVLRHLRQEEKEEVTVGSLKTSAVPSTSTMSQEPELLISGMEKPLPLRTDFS
Sequence of hSTING-HAQ (Q86WV6 whole entry R71H/G230A/H232R/R293Q): as the sequence (Q86WV6 whole entry H232R) above, with R71H, G230A, R293Q counted along it
Sequence of hSTING-H232 (Q86WV6 whole entry): as the sequence (Q86WV6 whole entry H232R) above, with R232H counted along it
T2 sequence (Q86WV6 whole entry R293Q): as the sequence (Q86WV6 whole entry H232R) above, with R232H, R293Q counted along it
T3 sequence (Q86WV6 whole entry G230A/H232R/R293Q): as the sequence (Q86WV6 whole entry H232R) above, with G230A, R293Q counted along it

EC50 (hSTING-H232) [nM] | EC50 (mSTING-wt) [nM] | EC50 (hSTING-Q) [nM] | EC50 (hSTING-HAQ) [nM] | EC50 (hSTING-wt) [nM] | EC50 (hSTING-AQ) [nM] | SMILES | IFN-β level ([1]; 0.1 uM) | IFN-β level ([1]; 10 uM) | IFN-β level ([2]; 0.1 uM) | IFN-β level ([2]; 1 uM) | IFN-β level ([2]; 10 uM) | IFN-β level ([3]; 0.1 uM) [pg/mL] | IFN-β level ([3]; 1 uM) | IFN-β level ([3]; 10 uM) | EC50 (human PBMCs; [4]) [nM] | EC50 (human PBMCs; [5]) [nM] | EC50 (human PBMCs; [6]) [nM] | EC50 (human PBMCs; [7]) [nM]
1 to 500 | 1 to 500 | 1 to 500 | 1 to 500 | 1 to 500 | 1 to 500 | CCn1nc(C)cc1C(=O)Nc1nc2cc(C(N)=O)cnc2n1C/C=C/Cn1c(NC(=O)c2cc(C)nn2CC)nc2cc(C(N)=O)cc(OCCCN3CCOCC3)c21 [Compound T, 3-[(E)-4-[5-carbamoyl-2-[(2-ethyl-5-methyl-pyrazole-3-carbonyl)amino]-7-(3-morpholinopropoxy)benzimidazol-1-yl]but-2-enyl]-2-[(2-ethyl-5-methyl-pyrazole-3-carbonyl)amino]imidazo[4,5-b]pyridine-6-carboxamide] |  |  |  |  |  |  |  |  | 100 to 500 | < 100 | < 100 | 100 to 500
1 to 500 | 1 to 500 | 1 to 500 | 1 to 500 | 1 to 500 | 1 to 500 | CCn1nc(C)cc1C(=O)Nc1nc2cc(C(N)=O)cnc2n1C/C=C/Cn1c(NC(=O)c2cc(C)nn2CC)nc2cc(C(N)=O)cc(OCCCN3CCN(C(C)=O)CC3)c21 [Compound X, 3-[(E)-4-[7-[3-(4-acetylpiperazin-1-yl)propoxy]-5-carbamoyl-2-[(2-ethyl-5-methyl-pyrazole-3-carbonyl)amino]benzimidazol-1-yl]but-2-enyl]-2-[(2-ethyl-5-methyl-pyrazole-3-carbonyl)amino]imidazo[4,5-b]pyridine-6-carboxamide] |  |  |  |  |  |  |  |  | 100 to 500 | 100 to 500 | 100 to 500 | 100 to 500
1 to 500 | 1 to 500 | 1 to 500 | 1 to 500 | 1 to 500 | 1 to 500 | CCn1nc(C)cc1C(=O)Nc1nc2cc(C(N)=O)cnc2n1C/C=C/Cn1c(NC(=O)c2cc(C)nn2CC)nc2cc(C(N)=O)cc(OCCCN3CCCOCC3)c21 [Compound Z, 3-[(E)-4-[5-carbamoyl-2-[(2-ethyl-5-methyl-pyrazole-3-carbonyl)amino]-7-[3-(1,4-oxazepan-4-yl)propoxy]benzimidazol-1-yl]but-2-enyl]-2-[(2-ethyl-5-methyl-pyrazole-3-carbonyl)amino]imidazo[4,5-b]pyridine-6-carboxamide] |  |  |  |  |  |  |  |  |  |  |  | 

More lines, now with the values behind:

SMILES | EC50 (hSTING-H232) [nM] | EC50 (mSTING-wt) [nM] | EC50 (hSTING-Q) [nM] | EC50 (hSTING-HAQ) [nM] | EC50 (hSTING-wt) [nM] | EC50 (hSTING-AQ) [nM] | IFN-β level ([1]; 0.1 uM) | IFN-β level ([1]; 10 uM) | IFN-β level ([2]; 0.1 uM) | IFN-β level ([2]; 1 uM) | IFN-β level ([2]; 10 uM) | IFN-β level ([3]; 0.1 uM) [pg/mL] | IFN-β level ([3]; 1 uM) | IFN-β level ([3]; 10 uM) | EC50 (human PBMCs; [4]) [nM] | EC50 (human PBMCs; [5]) [nM] | EC50 (human PBMCs; [6]) [nM] | EC50 (human PBMCs; [7]) [nM]
Nc1nc2c(ncn2[C@@H]2O[C@@H]3COP(=O)(O)O[C@H]4[C@@H](O)[C@H](n5cnc6c(N)ncnc65)O[C@@H]4COP(=O)(O)O[C@@H]2[C@@H]3O)c(=O)[nH]1 [2′3-cGAMP, reference compound] |  |  |  |  |  |  | <10 pg/mL | <50 pg/mL | <10 pg/mL | <20 pg/mL | <50 pg/mL | <300 | <1,000 pg/ml | <3,000 pg/ml |  |  |  | 
CCn1nc(C)cc1C(=O)Nc1nc2cc(C(N)=O)cnc2n1C/C=C/Cn1c(NC(=O)c2cc(C)nn2CC)nc2cc(C(N)=O)cc(OC)c21 [Compound A, 3-[(E)-4-[5-carbamoyl-2-[(2-ethyl-5-methyl-pyrazole-3-carbonyl)amino]-7-methoxy-benzimidazol-1-yl]but-2-enyl]-2-[(2-ethyl-5-methyl-pyrazole-3-carbonyl)amino]imidazo[4,5-b]pyridine-6-carboxamide] | < 1 | < 1 | 1 to 500 | 1 to 500 | < 1 | 1 to 500 | >5,000 pg/ml | >15,000 pg/ml | >1,000 pg/ml | >1,000 pg/ml | >1,000 pg/ml | >100 | >10,000 pg/ml | >50,000 pg/ml |  |  |  | 
[2H]C1([2H])OC([2H])([2H])C([2H])([2H])N(CCCOc2cc(C(N)=O)cc3nc(NC(=O)c4cc(C)nn4CC)n(C/C=C/Cn4c(NC(=O)c5cc(C)nn5CC)nc5cc(C(N)=O)cnc54)c23)C1([2H])[2H] [Compound W, 3-[(E)-4-[5-carbamoyl-2-[(2-ethyl-5-methyl-pyrazole-3-carbonyl)amino]-7-[3-(2,2,3,3,5,5,6,6-octadeuteriomorpholin-4-yl)propoxy]benzimidazol-1-yl]but-2-enyl]-2-[(2-ethyl-5-methyl-pyrazole-3-carbonyl)amino]imidazo[4,5-b]pyridine-6-carboxamide] | 1 to 500 | 1 to 500 | 1 to 500 | 1 to 500 | 1 to 500 | 1 to 500 |  |  |  |  |  |  |  |  | 100 to 500 | 100 to 500 | < 100 | 100 to 500
CCn1nc(C)cc1C(=O)Nc1nc2cc(C(N)=O)cnc2n1C/C=C/Cn1c(NC(=O)c2cc(C)nn2CC)nc2cc(C(N)=O)cc(OCCCN3CCC[C@H]3COC(F)F)c21 [Compound Y, 3-[(E)-4-[5-carbamoyl-7-[3-[(2S)-2-(difluoromethoxymethyl)pyrrolidin-1-yl]propoxy]-2-[(2-ethyl-5-methyl-pyrazole-3-carbonyl)amino]benzimidazol-1-yl]but-2-enyl]-2-[(2-ethyl-5-methyl-pyrazole-3-carbonyl)amino]imidazo[4,5-b]pyridine-6-carboxamide] | < 1 | 1 to 500 | 1 to 500 | 1 to 500 | < 1 | 1 to 500 |  |  |  |  |  |  |  |  | < 100 | < 100 | < 100 | < 100
